Tests used:
[1] = target: T1, RelTt^NTD (Thermus thermophilus, UniProt Q5SHL3); assay: isothermal titration calorimetry; assay type: binding
T1 sequence (Q5SHL3 1-355): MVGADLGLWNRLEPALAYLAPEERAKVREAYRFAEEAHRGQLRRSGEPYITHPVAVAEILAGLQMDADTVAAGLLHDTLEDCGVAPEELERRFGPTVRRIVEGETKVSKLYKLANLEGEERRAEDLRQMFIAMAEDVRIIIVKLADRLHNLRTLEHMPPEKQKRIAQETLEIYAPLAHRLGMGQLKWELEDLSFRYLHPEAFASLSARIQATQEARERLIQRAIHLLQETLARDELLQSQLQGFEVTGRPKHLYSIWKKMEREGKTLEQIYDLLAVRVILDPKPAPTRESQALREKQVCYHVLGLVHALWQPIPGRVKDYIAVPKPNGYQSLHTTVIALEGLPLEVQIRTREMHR

[2] = target: T2, RelTt (Thermus thermophilus, UniProt Q5SHL3); assay: ppGpp synthetase activity; assay type: biochemical; details: enzyme alone (also with 70S IC and deacylated tRNAVal)
T2 sequence (Q5SHL3 1-727): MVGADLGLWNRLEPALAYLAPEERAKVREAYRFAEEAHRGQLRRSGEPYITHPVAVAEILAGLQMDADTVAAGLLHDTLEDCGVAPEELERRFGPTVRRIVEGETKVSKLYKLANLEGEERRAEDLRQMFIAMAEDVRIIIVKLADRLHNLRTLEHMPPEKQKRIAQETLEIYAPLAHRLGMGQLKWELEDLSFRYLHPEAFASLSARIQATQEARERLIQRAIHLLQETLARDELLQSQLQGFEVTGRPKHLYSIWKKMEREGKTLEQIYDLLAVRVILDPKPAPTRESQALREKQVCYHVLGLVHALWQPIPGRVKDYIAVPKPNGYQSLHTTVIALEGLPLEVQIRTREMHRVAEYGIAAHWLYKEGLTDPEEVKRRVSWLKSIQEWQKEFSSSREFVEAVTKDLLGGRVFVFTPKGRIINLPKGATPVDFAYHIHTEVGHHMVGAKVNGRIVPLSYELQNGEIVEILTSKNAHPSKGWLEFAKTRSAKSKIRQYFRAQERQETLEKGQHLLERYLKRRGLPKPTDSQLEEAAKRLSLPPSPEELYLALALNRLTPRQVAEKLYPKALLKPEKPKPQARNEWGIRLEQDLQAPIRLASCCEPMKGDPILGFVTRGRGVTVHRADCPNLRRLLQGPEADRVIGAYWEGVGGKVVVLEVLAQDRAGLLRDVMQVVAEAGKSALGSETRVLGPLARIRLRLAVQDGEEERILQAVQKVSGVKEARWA

SMILES: Nc1ncnc2c1ncn2[C@@H]1O[C@H](COP(=O)(O)CP(=O)(O)OP(=O)(O)O)[C@@H](O)[C@H]1O [APCPP]
- Kd [1]: ~50 µM

SMILES: Nc1nc2c(ncn2[C@@H]2O[C@H](COP(=O)(O)OP(=O)(O)O)[C@@H](OP(=O)(O)OP(=O)(O)O)[C@H]2O)c(=O)[nH]1 [ppGpp]
- ppGpp synthetase activity [2]: ppGpp synthetase activity of RelTt

Reference: paper doi:10.1101/670703v1 (biorxiv, 2019)
